Tests used:
Format in all cases: functional
COLO 205 = experiment: Growth inhibition of human COLO205 cells at 10 uM after 48 hrs by SRB assay; settings: COLO 205, 48 h, read-out: GI
MCF7 = experiment: Growth inhibition of human MCF7 cells at 10 uM after 48 hrs by SRB assay; settings: MCF7, 48 h, read-out: GI
HCT-15 = experiment: Growth inhibition of human HCT15 cells at 10 uM after 48 hrs by SRB assay; settings: HCT-15, 48 h, read-out: GI
A549 = experiment: Growth inhibition of human A549 cells at 10 uM after 48 hrs by SRB assay; settings: A549, 48 h, read-out: GI
Rattus norvegicus = experiment: Antiinflammatory activity in albino Charles-Foster rat assessed as inhibition of carrageenan-induced paw oedema at 50 mg/kg, po administered 30 mins before carrageenan challenge […] after 1-3 hrs relative to control; set-up: scale not given: the % may be the effect or the level left
IMR-32 = experiment: Growth inhibition of human IMR32 cells at 10 uM after 48 hrs by SRB assay; settings: IMR-32, 48 h, read-out: GI
[1] = Growth inhibition of human 502713 cells at 10 uM after 48 hrs by SRB assay; settings: Homo sapiens, 502713, 48 h; read-out: GI
HEp-2 = experiment: Growth inhibition of human Hep2 cells at 10 uM after 48 hrs by SRB assay; settings: HEp-2, 48 h, read-out: GI
PC-3 = experiment: Growth inhibition of human PC3 cells at 10 uM after 48 hrs by SRB assay; settings: PC-3, 48 h, read-out: GI
OVCAR-5 = experiment: Growth inhibition of human OVCAR5 cells at 10 uM after 48 hrs by SRB assay; settings: OVCAR-5, 48 h, read-out: GI
DU-145 = experiment: Growth inhibition of human DU145 cells at 10 uM after 48 hrs by SRB assay; settings: DU-145, 48 h, read-out: GI

SMILES | inhibition of growth at 10 µM (COLO 205) | inhibition of growth at 10 µM (MCF7) | inhibition of growth at 10 µM (HCT-15) | inhibition of growth at 10 µM (A549) | Activity (Rattus norvegicus) | inhibition of growth at 10 µM (IMR-32) | inhibition of growth at 10 µM [1] | inhibition of growth at 10 µM (HEp-2) | inhibition of growth at 10 µM (PC-3) | inhibition of growth at 10 µM (OVCAR-5) | inhibition of growth at 10 µM (DU-145)
COc1ccc2nc3ccccc3c(NCCc3cccs3)c2c1 | 69% | 44% | 78% | 20% | 41.17% | 89% | 67% | 52% | – | – | –
Cc1cccc2c(NC(=S)NCc3ccco3)c3ccccc3nc12 | 88% | 94% | – | 46% | 32.33% | 5% | 95% | 61% | – | – | –
Cc1cccc2c(NC(=S)NCCc3cccs3)c3ccccc3nc12 | 19% | 92% | – | 53% | 30.7% | 42% | 71% | 67% | – | – | –
COc1ccc2nc3ccccc3c(NCCc3c[nH]c4ccccc34)c2c1 | 0% | 42% | – | – | 31.33% | – | – | 9% | 51% | 23% | 25%
COc1ccc2nc3ccccc3c(NC(=S)NCCc3cccs3)c2c1 | 35% | 34% | 45% | 42% | 34.08% | 74% | 46% | 28% | – | – | –
Cc1cccc2c(NCc3ccco3)c3ccccc3nc12 | 72% | 58% | 74% | 52% | 0% | 86% | 52% | 51% | – | – | –
COc1ccc2nc3ccccc3c(NC(=S)NCc3ccco3)c2c1 | 23% | 35% | 61% | 37% | 30.98% | 71% | 45% | 26% | – | – | –
COc1cccc2c(NCc3ccco3)c3ccccc3nc12 | 83% | 50% | 71% | 36% | 38.37% | 98% | 62% | 54% | – | – | –
COc1cccc2c(NCCc3c[nH]c4ccccc34)c3ccccc3nc12 | 84% | 78% | 91% | 49% | 39.69% | 99% | 63% | 75% | – | – | –
Cc1cccc2c(NCCc3c[nH]c4ccccc34)c3ccccc3nc12 | 69% | 53% | – | – | 31.03% | – | – | 23% | 53% | 51% | 42%
Cc1cccc2c(NC(=S)NCCc3c[nH]c4ccccc34)c3ccccc3nc12 | 98% | 95% | – | 84% | 35.77% | 67% | 90% | 96% | – | – | –
COc1cccc2c(NCCc3cccs3)c3ccccc3nc12 | 24% | 37% | 73% | 61% | 26.05% | 78% | 67% | 62% | – | – | –
COc1ccc2nc3ccccc3c(NCc3ccco3)c2c1 | 88% | 44% | 80% | 35% | 22.96% | 95% | 65% | 56% | – | – | –
Cc1cccc2c(NCCc3cccs3)c3ccccc3nc12 | 79% | 73% | – | – | 33.09% | – | – | 41% | 52% | 6% | 41%
COc1cccc2c(NCC3CCCO3)c3ccccc3nc12 (racemic) | 66% | 52% | 64% | 56% | 0% | 69% | 60% | 34% | – | – | –
Cc1cccc2c(NC(=S)NCC3CCCO3)c3ccccc3nc12 (racemic) | 71% | 99% | – | 96% | 25.35% | 21% | 95% | 14% | – | – | –
Cc1cccc2c(NCC3CCCO3)c3ccccc3nc12 (racemic) | 46% | 45% | – | – | 34.02% | – | – | 18% | 61% | 54% | 17%
COc1ccc2nc3ccccc3c(NC(=S)NCC3CCCO3)c2c1 (racemic) | 20% | 8% | 41% | 24% | 29.57% | 27% | 21% | 8% | – | – | –
COc1ccc2nc3ccccc3c(NCC3CCCO3)c2c1 (racemic) | 61% | 42% | – | – | 20.16% | – | – | 11% | 37% | 41% | 9%
COc1cccc2c1C(=O)c1c(O)c3c(c(O)c1C2=O)C[C@@](O)(C(=O)CO)C[C@@H]3O[C@H]1C[C@H](N)[C@H](O)[C@H](C)O1 [DOXORUBICIN] | 34% | 48% | 93% | 44% | – | 86% | 28% | 55% | – | – | –
O=c1[nH]cc(F)c(=O)[nH]1 [FLUOROURACIL] | 25% | 0% | 29% | 0% | – | 58% | 40% | 29% | – | – | –
CC(C)Cc1ccc(C(C)C(=O)O)cc1 (stereo unspecified) [IBUPROFEN] | – | – | – | – | 39% | – | – | – | – | – | –
CO[C@@]12[C@H](COC(N)=O)C3=C(C(=O)C(C)=C(N)C3=O)N1C[C@@H]1N[C@@H]12 [MITOMYCIN] | 4% | – | 25% | 40% | – | 85% | 44% | 58% | – | – | –
CC(=O)O[C@H]1C(=O)[C@@]2(C)[C@H]([C@H](OC(=O)c3ccccc3)[C@]3(O)C[C@H](OC(=O)[C@H](O)[C@@H](NC(=O)c4ccccc4)c4ccccc4)C(C)=C1C3(C)C)[C@]1(OC(C)=O)CO[C@@H]1C[C@@H]2O [PACLITAXEL] | 61% | 65% | 84% | 51% | – | 58% | 58% | 75% | – | – | –
